Measured values taken from patent US20240252506A1 (Hoffmann-La Roche Inc., priority 2021, published 2024).
≈ marks a conversion by molar mass, not a printed value. Where a name gives a salt, the structure may show the parent alone.

These compounds were tested on Escherichia coli ATCC 25922 (assay: Minimal Inhibitory Concentration (MIC) determination, broth microdilution (CLSI M07-A10)). Conditions: Escherichia coli, ATCC25922, read-out: Escherichia coli growth inhibition MIC, strain Escherichia coli ATCC 25922, 18-24 hours at 35±2° C., lowest concentration for complete growth inhibition (no visible growth).
Format: cell-based
How it was run: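 Broth microdilution per CLSI M07-A10; compounds in 2-fold serial dilutions; inoculum from 0.5 McFarland suspension diluted 1:200 in broth. Incubated 18-24 h at 35±2° C in ambient air; MIC (μg/mL) taken as lowest concentration giving no visible growth.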

| Compound | MIC [µg/mL] |
| --- | --- |
| C[C@H](N)Cn1nc2c(F)c3c(c(F)c2n1)CC(CN1CCC2(CC1)CN(c1cnc4c(n1)NC(=O)CO4)C(=O)O2)C3 [Example 123, 6-[8-[[2-[(2S)-2-aminopropyl]-4,8-difluoro-6,7-dihydro-5H-cyclopenta[f]benzotriazol-6-yl]methyl]-2-oxo-1-oxa-3,8-diazaspiro[4.5]decan-3-yl]-4H-pyrazino[2,3-b][1,4]oxazin-3-one; formic acid] | 0.125 (≈ 0.219 µM) |

Same assay, conditions: Escherichia coli, ATCC25922, strain Escherichia coli ATCC 25922, 18-24 hours at 35±2° C., lowest concentration for complete growth inhibition (no visible growth), read-out: Escherichia coli growth inhibition MIC

| MIC [µg/mL] | Compound |
| --- | --- |
| 0.5 | CNCC(=O)NCc1nc2cc3c(c(F)c2[nH]1)CC(CN1CCC2(CC1)CN(c1cnc4c(n1)NC(=O)CO4)C(=O)O2)C3.O=C(O)C(F)(F)F (stereo not drawn) [Example 160, N-[[8-fluoro-6-[[2-oxo-3-(3-oxo-4H-pyrazino[2,3-b][1,4]oxazin-6-yl)-1-oxa-3,8-diazaspiro[4.5]decan-8-yl]methyl]-1,5,6,7-tetrahydrocyclopenta[f]benzimidazol-2-yl]methyl]-2-(methylamino)acetamide; 2,2,2-trifluoroacetic acid] |
| 0.25 (≈ 0.452 µM) | N[C@@H](CO)c1nc2cc3c(c(F)c2o1)CC(CN1CCC2(CC1)CN(c1cnc4c(n1)NC(=O)CO4)C(=O)O2)C3 (stereo partly drawn) [Example 143, 6-[8-[[2-[(1S)-1-Amino-2-hydroxy-ethyl]-8-fluoro-6,7-dihydro-5H-cyclopenta[f][1,3]benzoxazol-6-yl]methyl]-2-oxo-1-oxa-3,8-diazaspiro[4.5]decan-3-yl]-4H-pyrazino[2,3-b][1,4]oxazin-3-one] |
| 0.5 (≈ 0.798 µM) | CNCC(=O)NCCn1nnc2c(F)c3c(c(F)c21)CC(CN1CCC2(CC1)CN(c1cnc4c(n1)NC(=O)CO4)C(=O)O2)C3 (stereo not drawn) [Example 61, N-[2-[4,8-Difluoro-6-[[2-oxo-3-(3-oxo-4H-pyrazino[2,3-b][1,4]oxazin-6-yl)-1-oxa-3,8-diazaspiro[4.5]decan-8-yl]methyl]-6,7-dihydro-5H-cyclopenta[f]benzotriazol-1-yl]ethyl]-2-(methylamino)acetamide] |
| 1 | O=C(O)C(F)(F)F.O=C1COc2ncc(N3CC4(CCN(CC5Cc6c(c(F)c7[nH]c([C@@H]8CCC(=O)N8)nc7c6F)C5)CC4)OC3=O)nc2N1 [Example 21, 6-[8-[[4,8-difluoro-2-[(2S)-5-oxopyrrolidin-2-yl]-3,5,6,7-tetrahydrocyclopenta[f]benzimidazol-6-yl]methyl]-2-oxo-1-oxa-3,8-diazaspiro[4.5]decan-3-yl]-4H-pyrazino[2,3-b][1,4]oxazin-3-one; 2,2,2-trifluoroacetic acid] |
| 0.25 | CNCc1nc2cc3c(c(F)c2o1)CC(CN1CCC2(CC1)CN(c1cnc4c(n1)NC(=O)CO4)C(=O)O2)C3.O=C(O)C(F)(F)F (stereo not drawn) [Example 22, 6-[8-[[8-fluoro-2-(methylaminomethyl)-6,7-dihydro-5H-cyclopenta[f][1,3]benzoxazol-6-yl]methyl]-2-oxo-1-oxa-3,8-diazaspiro[4.5]decan-3-yl]-4H-pyrazino[2,3-b][1,4]oxazin-3-one; 2,2,2-trifluoroacetic acid] |
| 0.125 (≈ 0.209 µM) | CNCC(=O)Nc1nc2c(F)c3c(c(F)c2[nH]1)CC(CN1CCC2(CC1)CN(c1cnc4c(n1)NC(=O)CO4)C(=O)O2)C3 [Example 35, N-[4,8-difluoro-6-[[2-oxo-3-(3-oxo-4H-pyrazino[2,3-b][1,4]oxazin-6-yl)-1-oxa-3,8-diazaspiro[4.5]decan-8-yl]methyl]-3,5,6,7-tetrahydrocyclopenta[f]benzimidazol-2-yl]-2-(methylamino)acetamide] |
| 0.5 | O=C1COc2ncc(N3CC4(CCN(CC5Cc6c(c(F)c7c(nnn7CCNC7CC7)c6F)C5)CC4)OC3=O)nc2N1.O=CO (single isomer, unassigned) [Example 124, 6-[8-[[1-[2-(Cyclopropylamino)ethyl]-4,8-difluoro-6,7-dihydro-5H-cyclopenta[f]benzotriazol-6-yl]methyl]-2-oxo-1-oxa-3,8-diazaspiro[4.5]decan-3-yl]-4H-pyrazino[2,3-b][1,4]oxazin-3-one;formic acid] |
| 0.25 | O=C(O)C(F)(F)F.O=C1COc2ncc(N3CC4(CCN(CC5Cc6c(c(F)c7[nH]c([C@H]8C[C@H](O)CN8)nc7c6F)C5)CC4)OC3=O)nc2N1 [Example 49, 6-[8-[[4,8-difluoro-2-[(2R,4S)-4-hydroxypyrrolidin-2-yl]-3,5,6,7-tetrahydrocyclopenta[f]benzimidazol-6-yl]methyl]-2-oxo-1-oxa-3,8-diazaspiro[4.5]decan-3-yl]-4H-pyrazino[2,3-b][1,4]oxazin-3-one; 2,2,2-trifluoroacetic acid] |
| 0.125 (≈ 0.239 µM) | NCc1nc2cc3c(c(F)c2o1)CC(CN1CCC2(CC1)CN(c1cnc4c(n1)NC(=O)CO4)C(=O)O2)C3 (single isomer, unassigned) [Example 104, 6-[2-oxo-8-[[2-(aminomethyl)-8-fluoro-6,7-dihydro-5H-cyclopenta[f][1,3]benzoxazol-6-yl]methyl]-1-oxa-3,8-diazaspiro[4.5]decan-3-yl]-4H-pyrazino[2,3-b][1,4]oxazin-3-one] |
| 0.5 (≈ 0.864 µM) | O=C1COc2ccc(N3CC4(CCN(CC5Cc6cc7nc([C@@H]8C[C@@H](O)CN8)oc7c(F)c6C5)CC4)OC3=O)nc2N1 (stereo partly drawn) [Example 147, 6-[8-[[8-Fluoro-2-[(2S,4R)-4-hydroxypyrrolidin-2-yl]-6,7-dihydro-5H-cyclopenta[f][1,3]benzoxazol-6-yl]methyl]-2-oxo-1-oxa-3,8-diazaspiro[4.5]decan-3-yl]-4H-pyrido[3,2-b][1,4]oxazin-3-one] |
| 0.25 (≈ 0.475 µM) | Nc1nc2c(F)c3c(c(F)c2[nH]1)CC(CN1CCC2(CC1)CN(c1cnc4c(n1)NC(=O)CO4)C(=O)O2)C3 [Example 32, 6-[8-[(2-amino-4,8-difluoro-3,5,6,7-tetrahydrocyclopenta[f]benzimidazol-6-yl)methyl]-2-oxo-1-oxa-3,8-diazaspiro[4.5]decan-3-yl]-4H-pyrazino[2,3-b][1,4]oxazin-3-one] |
| 2 | NCCn1c(=O)n(CCN)c2c(F)c3c(c(F)c21)CC(CN1CCC2(CC1)CN(c1cnc4c(n1)NC(=O)CO4)C(=O)O2)C3.O=C(O)C(F)(F)F [Example 43, 6-[8-[[1,3-bis(2-aminoethyl)-4,8-difluoro-2-oxo-6,7-dihydro-5H-cyclopenta[f]benzimidazol-6-yl]methyl]-2-oxo-1-oxa-3,8-diazaspiro[4.5]decan-3-yl]-4H-pyrazino[2,3-b][1,4]oxazin-3-one; 2,2,2-trifluoroacetic acid] |
| 0.25 (≈ 0.41 µM) | CN[C@H]1CN[C@H](c2nc3c(F)c4c(c(F)c3[nH]2)CC(CN2CCC3(CC2)CN(c2cnc5c(n2)NC(=O)CO5)C(=O)O3)C4)C1 [Example 27, 6-[8-[[4,8-difluoro-2-[(2S,4R)-4-(methylamino)pyrrolidin-2-yl]-3,5,6,7-tetrahydrocyclopenta[f]benzimidazol-6-yl]methyl]-2-oxo-1-oxa-3,8-diazaspiro[4.5]decan-3-yl]-4H-pyrazino[2,3-b][1,4]oxazin-3-one] |
| 0.125 (≈ 0.233 µM) | C[C@H](N)c1nc2cc3c(c(F)c2o1)CC(CN1CCC2(CC1)CN(c1cnc4c(n1)NC(=O)CO4)C(=O)O2)C3 (stereo partly drawn) [Example 97, 6-[8-[[2-[(1S)-1-aminoethyl]-8-fluoro-6,7-dihydro-5H-cyclopenta[f][1,3]benzoxazol-6-yl]methyl]-2-oxo-1-oxa-3,8-diazaspiro[4.5]decan-3-yl]-4H-pyrazino[2,3-b][1,4]oxazin-3-one] |

Same assay, conditions: strain Escherichia coli ATCC 25922, 18-24 hours at 35±2° C., lowest concentration for complete growth inhibition (no visible growth)

| Escherichia coli growth inhibition MIC [µg/mL] | Compound |
| --- | --- |
| 0.125 | C[C@H](N)Cn1nc2cc(F)c3c(c2n1)CC(CN1CCC2(CC1)CN(c1cnc4c(n1)NC(=O)CO4)C(=O)O2)C3 (single isomer, unassigned) [Example 89] |
| 0.25 | NCc1nc2cc3c(c(F)c2o1)CC(CN1CCC2(CC1)CN(c1cnc4c(n1)NC(=O)CO4)C(=O)O2)C3 (single isomer, unassigned) [Example 105, 6-[2-oxo-8-[[2-(aminomethyl)-8-fluoro-6,7-dihydro-5H-cyclopenta[f][1,3]benzoxazol-6-yl]methyl]-1-oxa-3,8-diazaspiro[4.5]decan-3-yl]-4H-pyrazino[2,3-b][1,4]oxazin-3-one] |
| 1 | O=C1COc2ncc(N3CC4(CCN(CC5Cc6cc7nn(C8CNC8)nc7c(F)c6C5)CC4)OC3=O)nc2N1 (single isomer, unassigned) [Example 110, 6-[2-oxo-8-[[2-(azetidin-3-yl)-8-fluoro-6,7-dihydro-5H-cyclopenta[f]benzotriazol-6-yl]methyl]-1-oxa-3,8-diazaspiro[4.5]decan-3-yl]-4H-pyrazino[2,3-b][1,4]oxazin-3-one] |
| 0.125 | O=C1COc2ncc(N3CC4(CCN(CC5Cc6cc7nc([C@@H]8CCN8)oc7c(F)c6C5)CC4)OC3=O)nc2N1 (stereo partly drawn) [Example 107, 6-[8-[[2-[(2S)-azetidin-2-yl]-8-fluoro-6,7-dihydro-5H-cyclopenta[f][1,3]benzoxazol-6-yl]methyl]-2-oxo-1-oxa-3,8-diazaspiro[4.5]decan-3-yl]-4H-pyrazino[2,3-b][1,4]oxazin-3-one] |
| 0.125 | CNCCn1nc2cc(F)c3c(c2n1)CC(CN1CCC2(CC1)CN(c1cnc4c(n1)NC(=O)CO4)C(=O)O2)C3 (single isomer, unassigned) [Example 87, 6-[8-[[5-fluoro-2-[2-(methylamino)ethyl]-7,8-dihydro-6H-cyclopenta[e]benzotriazol-7-yl]methyl]-2-oxo-1-oxa-3,8-diazaspiro[4.5]decan-3-yl]-4H-pyrazino[2,3-b][1,4]oxazin-3-one] |

Same assay, conditions: strain Escherichia coli ATCC 25922, 18-24 hours at 35±2° C., lowest concentration for complete growth inhibition (no visible growth), dihydrochloride

| Compound | Escherichia coli growth inhibition MIC [µg/mL] |
| --- | --- |
| NCCn1nc2cc(F)c3c(c2n1)CC(CN1CCC2(CC1)CN(c1ccc4c(n1)NC(=O)CO4)C(=O)O2)C3 (single isomer, unassigned) [Example 170, 6-[2-Oxo-8-[[2-(2-aminoethyl)-5-fluoro-7,8-dihydro-6H-cyclopenta[e]benzotriazol-7-yl]methyl]-1-oxa-3,8-diazaspiro[4.5]decan-3-yl]-4H-pyrido[3,2-b][1,4]oxazin-3-one dihydrochloride] | 0.25 |
